In article PMC11874007, “Switching Roles—Exploring Concentration-Dependent Agonistic versus Antagonistic Behavior of Integrin Ligands” (Journal of Medicinal Chemistry, 2025):

System: αvβ6+ HN cells
Test: Wound scratch cell migration assay, HN cells
Format: cell-based
Conditions: at either concentration (1 nM, 1 μM)
Description: As a biological readout for integrin signaling, we analyzed ligand effects on cell adhesion and migration by wound scratch assays (Figure 10A,B). […] Microscopical images were taken directly after wounding the cell monolayers and then after 9, 24, 48, and 72 h, respectively.
Figure 10 (A) Effect of integrin ligands on cancer cell migration. […] Microscopical measurements of wound gaps were taken directly after setting the wound scratch and then after 9, 24, 48, and 72 h, respectively. Wound scratch assays were repeated at least three times. The extent of wound gap closure [%]/cell coverage was calculated by a python script utilizing Canny’s Edge Detection algorithm as described under Materials and summarized in the corresponding histograms (see also Scheme S5 in the Supporting Information). (B) Adhesion of M21, OV-MZ-6, and HN cells in the presence of the respective integrin targeting ligand at low (1 nM) and high (1 μM) concentrations. […]
The assays were performed according to a modified protocol as previously published.[94] […] The smoothened images were then filtered by a Sobel kernel[98] and the magnitude and direction of the intensity gradient of the images calculated. […] The resulting images were then segmented and binarized by use of a grid filter and analyzed with respect to cell-covered area relative to the start image of each series.

## c(FRGDLAFp(NMe)K) [L3]
  Effect on cell migration: neither antagonistic nor agonistic effects
